One block for each compound: values may come before it.
What was measured:
[1] = test system: CHO cells transfected with ABA-inducible luciferase constructs; test: ABA-inducible luciferase assay; format: cell-based; settings: 10 μM (mixture 10 μM each), 24 hours
[2] = Chemical stability of ABA-Fe molecules (HPLC); format: physicochemical; settings: 100 μM, 50% HEPES/DMSO pH 7.4, 37° C., one hour
Procedure: Chemical stability of ABA-Fe molecules: 100 μM ABA-Fe (in 50% HEPES/DMSO buffer, pH=7.4) was incubated at 37° C. for one hour before HPLC detection. The percentages for molecule cleavage were quantified by the peak area of ABA out of the total peak area.
(§1) HPLC chromatograms were acquired using an ULTIMATE 3000 LC System (Thermo Fisher Scientific, Waltham, Mass.) with ACCLAIM 120 Å, C18, 3 μm analytical (4.6×100 mm) column (Thermo Fisher Scientific, Waltham, Mass.). Chromatographic conditions: eluent A: 0.1% v/v TFA in water; eluent B: 0.1% v/v TFA in acetonitrile. ABA in ethanol or ABA-HP in DMSO was eluted at a flow rate of 0.750 ml/min monitored at a wavelength of 260 nm. 0-12 min (linear): 95% A, 5% B to 5% A, 95% B; 12-15 min: 5% A, 95% B; 15-17 min (linear): 5% A, 95% B to 95% A, 5% B. Generation of ABA was quantified by the peak area of ABA out of the total peak area.

[3] = ABA-Fe reactivity and selectivity towards Fe^2+ (HPLC); format: physicochemical; settings: 37° C., one hour
Procedure: ABA-Fe reactivity and selectivity towards Fe^2+: 100 μM ABA-Fe with 1 mM Fe^2+ (in 50% HEPES/DMSO buffer, pH=7.4), and 100 μM ABA-Fe with 1 mM Fe^3+ (in 50% HEPES/DMSO buffer, pH=7.4) were incubated at 37° C. for one hour before HPLC detection. The percentages for molecule cleavage were quantified by the peak area of ABA out of the total peak area.
as §1

[4] = test system: HEK 293 EGFP reporter cells; test: Cell stability of ABA-Fe molecules; format: cell-based
Procedure: Mammalian Cell Culture: HEK 293 EGFP reporter cells were cultured in Dulbecco's modified Eagle's medium (DMEM, GIBCO, Life Technologies, Carlsbad, Calif.) with 10% Fetal Bovine Serum (FBS, GIBCO, Life Technologies, Carlsbad, Calif.), 1× […] (100× from GIBCO, Life Technologies, Carlsbad, Calif.), and 1× Penicillin/Streptomycin (Pen/Strep, 100× from GIBCO, Life Technologies, Carlsbad, Calif.). Cells were plated with the starting concentration of 200,000 cells per well in a 24-well plate (Greiner Bio-One GmbH; Frickenhausen, Germany) for a day, and then were treated with either 10 μM of ABA-Fe and 20 μM of DFO, 10 μM of ABA-Fe only, or 10 μM of ABA-Fe and 100 μM of Fe^2+ aqueous solution.
Imagines for green fluorescence were taken for living cells every two hours after adding in those molecules by microscopy illumination system (Axio Observer; Carl Zeiss AG, Oberkochen, Germany). Each type of the experiment was carried out as duplex.

Source text for transfected cells: A concern of using UV-triggered reactions in cells is phototoxicity.

Compound: CC1=CC(=O)CC(C)(C)C1(O)/C=C/C(C)=C/C(=O)O (single isomer, unassigned) [2-trans isomer]
induced luciferase expression (activity of ABA isomers) [1]: reduced activity

chemical stability [2]: chemically stable | selectivity towards Fe^2+ vs Fe^3+ ([3]; 100 μM with 1 mM Fe^2+ or Fe^3+): exhibits selectivity | reactivity (cleavage) towards Fe^2+ ([3]; 100 μM with 1 mM Fe^2+): exhibits Fe^2+ reactivity | stability in cells [4]: stable in cells
Compound: CC1=CC(=O)CC(C)(C)[C@@]1(O)/C=C/C(C)=C\C(=O)ONC(C)c1ccccc1 (stereo partly drawn) [Compound 8]

Compound: dimethoxynitrosobenzaldehyde [DMNB-derived photoproduct]
toxicity (transfected cells): does not cause observable toxicity

Reference: US10907219B2, “Compositions and methods for controlling cellular function” (STC.UNM, priority 2014, dated 2021)
